# Test results published in US9879043B1, “Synthesis of non-natural cofactor analogs of S-adenosyl-L-methionine using methionine adenosyltransferase” (University of Kentucky Research Foundation, priority 2013, dated 2018).
# Tests used:
# [1] = target: Escherichia coli MAT (eMAT) (Escherichia coli, UniProt P0A817); assay: MAT assay, turnover of S/Se-Met analogs to S(Se)AM analogs (RP-HPLC end point); type: biochemical; conditions: 2 mM Met analog, 1 mM ATP, 5 μM MAT, pH 8, 4 h, 37° C., average of two assays
# Sequence of Escherichia coli MAT (eMAT) (P0A817 whole entry): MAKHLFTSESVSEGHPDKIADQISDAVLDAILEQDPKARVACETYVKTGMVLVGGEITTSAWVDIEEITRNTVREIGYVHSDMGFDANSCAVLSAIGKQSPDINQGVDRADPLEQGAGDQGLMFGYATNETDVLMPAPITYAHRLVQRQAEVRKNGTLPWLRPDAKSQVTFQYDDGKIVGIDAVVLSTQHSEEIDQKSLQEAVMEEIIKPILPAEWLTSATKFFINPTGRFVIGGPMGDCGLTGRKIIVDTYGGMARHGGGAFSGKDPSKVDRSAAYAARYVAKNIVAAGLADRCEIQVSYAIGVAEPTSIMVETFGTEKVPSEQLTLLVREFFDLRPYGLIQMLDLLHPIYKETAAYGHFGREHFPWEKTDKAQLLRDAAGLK
# [2] = target: T1, Sulfolobus solfataricus MAT (sMAT) (Saccharolobus solfataricus, UniProt Q980S9); assay: Kinetic measurements of sMAT reactions; type: biochemical
# T1 sequence (Q980S9 1-404): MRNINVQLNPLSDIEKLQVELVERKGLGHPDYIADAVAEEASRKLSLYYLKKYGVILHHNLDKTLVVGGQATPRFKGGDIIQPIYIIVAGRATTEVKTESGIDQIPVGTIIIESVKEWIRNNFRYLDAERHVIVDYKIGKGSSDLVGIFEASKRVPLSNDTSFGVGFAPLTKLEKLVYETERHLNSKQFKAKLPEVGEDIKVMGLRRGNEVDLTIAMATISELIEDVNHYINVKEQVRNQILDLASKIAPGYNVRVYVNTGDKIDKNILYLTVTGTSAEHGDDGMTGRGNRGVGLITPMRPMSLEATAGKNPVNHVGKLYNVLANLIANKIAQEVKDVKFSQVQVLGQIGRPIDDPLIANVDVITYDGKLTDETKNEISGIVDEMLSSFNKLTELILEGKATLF
# Experimental: Kinetic Measurements of sMAT Reactions: Pseudo first-order kinetics was assessed in triplicate under saturating ATP (2.5 mM) and variable L-methionine/L-ethionine (0.007, 0.013, 0.033, 0.066, 0.133, 0.333, 0.66, 1.33 mM) and saturating L-methionine/L-ethionine (2.5 mM) and variable ATP (0.013, 0.033, 0.066, 0.133, 0.333, 0.66, 1.33 mM) concentrations. Reactions were performed in buffer containing 25 mM Tris pH 8.0, 40 mM KCl and 5 mM MgCl2, and 0.5 μg purified sMAT was added and incubated at 37° C. or 65° C. in a final volume of 20 μL. Reaction products were analyzed using RP-HPLC method above and product quantification was carried out using standard curve generated by commercial SAM. The kinetic curves were fit to the Michaelis-Menton equation using Prism software.
smiles,measurement,setting,value
"CCSCC[C@H](N)C(=O)O [compound 3, (2S)-2-amino-4-(ethylsulfanyl)butanoic acid]",Percentage Turn-over eMAT,[1],8%
same,Percentage Turn-over eMAT,[1]; listed as ethionine,10%
same,kcat,"[2]; 37° C. or 65° C., L-methionine versus L-ethionine",similar
same,Km,[2]; compared to native substrate L-methionine,higher Km values
